{"source": "patent US12161656B2", "about": "(MELINTA SUBSIDIARY CORP., priority 2010, dated 2024)", "key": {"[1]": {"system": "rabbit red blood cells (RBCs)"}, "[2]": {"excerpt": "The solubility of four non-dimethlyamino tetracyclines, with and without Mg^2+, was examined."}, "[3]": {"system": "Human umbilical vein endothelial cells (HUVEC)", "assay": "Uptake of minocycline in HUVEC at various Mg/minocycline ratios (LCMS), Example 12", "type": "cell-based", "details": "1 mg/mL in saline, 30 min, Mg/minocycline ratios 0-25, FIGS. 6 and 7", "procedure": "Cells and reagents: Human umbilical vein endothelial cells (HUVEC) were purchased from Lonza and maintained according to manufacturer's recommendations in EGM-2 media. A 10 mg/mL solution of minocycline was prepared in 13.6 mg/mL Na-acetate without addition of Mg. This stock solution was further diluted in saline to 1 mg/mL with addition of Mg in the form of 1 M MgSO4 to generate the following molar ratios of Mg to minocycline: 0, 1, 2.5, 5, 10, 25.\nUptake experimental conditions: HUVECs were seeded at 4.5×10^5 cells/well density in 6-well plates in EGM-2 media. Two days after seeding, cells were washed once with 2 mL of saline, and then 2 mL of 1 mg/mL drug solution in saline prepared as described above was placed in each well in triplicate. Plates were incubated in a CO2 incubator at 37° C. for 30 min. Drug solutions were aspirated and cells were washed once with 2 mL of saline. 0.5 mL of saline was placed in each well and the cell monolayer was scraped using a plastic cell scraper. Cell suspensions were transferred to 1.5 mL plastic tubes and sonicated for 30 sec at maximal power. Cell lysates were spun down for 10 min on a table top microcentrifuge at maximum speed and supernatants were collected. […]"}, "[4]": {"system": "rabbit red blood cells (RBCs)", "assay": "In vitro hemolysis of rabbit red blood cells (in vitro model of venous phlebitis), Example 8", "details": "Table 29, rabbit RBCs, 2.5 mg/ml minocycline solution, different molar ratios cation:minocycline"}}, "note": "Read-outs that look alike come from different tables or passages of the source."}
{"molecule": "C[C@@H]1[C@H](O)[C@@H](C)/C=C/C=C/C=C/C=C/C=C/C=C/C=C/[C@H](O[C@@H]2O[C@H](C)[C@@H](O)[C@H](N)[C@@H]2O)C[C@@H]2O[C@](O)(C[C@@H](O)C[C@@H](O)[C@H](O)CC[C@@H](O)C[C@@H](O)CC(=O)O[C@H]1C)C[C@H](O)[C@H]2C(=O)O", "note": "[Amphoterin B, Amphotericin B]", "values": [{"measurement": "Hemolysis of RBCs in solution relative to water", "setting": "[1]", "value": 101.31, "unit": "%"}, {"measurement": "Hemolysis of RBCs in solution relative to water", "setting": "[1]; pH 5.85", "value": 101.31, "unit": "%"}]}
{"molecule": "C[C@H]1c2cccc(O)c2C(=O)C2=C(O)[C@]3(O)C(=O)C(C(N)=O)=C(O)[C@@H](N(C)C)[C@@H]3[C@@H](O)[C@@H]21", "note": "[Doxycycline]", "values": [{"measurement": "solubility (text summary of Table 36)", "setting": "[2]", "value": "is soluble in the absence of divalent cations, such as Mg^2+, but is insoluble in the presence of divalent cations at low pH"}]}
{"molecule": "CN(C)c1ccc(O)c2c1C[C@H]1C[C@H]3[C@H](N(C)C)C(O)=C(C(N)=O)C(=O)[C@@]3(O)C(O)=C1C2=O", "note": "[Minocycline]", "values": [{"measurement": "intracellular uptake of minocycline", "setting": "[3]", "value": "decrease in intracellular uptake of minocycline is observed as the concentration of a divalent cation, such as Mg^2+ increases"}]}
{"molecule": "CN(C)[C@@H]1C(O)=C(C(N)=O)C(=O)[C@@]2(O)C(O)=C3C(=O)c4c(O)cccc4[C@@](C)(O)[C@H]3[C@H](O)[C@@H]12", "note": "[oxytetracycline]", "values": [{"measurement": "solubility (text summary of Table 36)", "setting": "[2]", "value": "remains insoluble in the presence of divalent cations, such as Mg^2+, at low pH"}]}
{"molecule": "Triton-x", "values": [{"measurement": "Hemolysis of RBCs in solution relative to water", "setting": "[4]", "value": 97.82, "unit": "%"}]}
